Earlier results, collected in US20220265670A1, “COMPOSITION AND USE THEREOF FOR THE TREATMENT OF CUTANEOUS MASTOCYTOSIS” (AC BIOSCIENCE SA, priority 2019, published 2022).

How the values were obtained:
c-Kit = c-Kit (Homo sapiens, UniProt P10721)
[1] = test system: JM-mutated (exon 11) c-Kit; conditions: cellular level; read-out: IC50, JM-mutated (exon 11) c-Kit-dependent cell proliferation
mast degranulation = conditions: low masitinib concentrations
PDGF-R = conditions: cellular level; read-out: IC50, PDGF-R-dependent cell proliferation

Sequence of c-Kit (P10721 26-976): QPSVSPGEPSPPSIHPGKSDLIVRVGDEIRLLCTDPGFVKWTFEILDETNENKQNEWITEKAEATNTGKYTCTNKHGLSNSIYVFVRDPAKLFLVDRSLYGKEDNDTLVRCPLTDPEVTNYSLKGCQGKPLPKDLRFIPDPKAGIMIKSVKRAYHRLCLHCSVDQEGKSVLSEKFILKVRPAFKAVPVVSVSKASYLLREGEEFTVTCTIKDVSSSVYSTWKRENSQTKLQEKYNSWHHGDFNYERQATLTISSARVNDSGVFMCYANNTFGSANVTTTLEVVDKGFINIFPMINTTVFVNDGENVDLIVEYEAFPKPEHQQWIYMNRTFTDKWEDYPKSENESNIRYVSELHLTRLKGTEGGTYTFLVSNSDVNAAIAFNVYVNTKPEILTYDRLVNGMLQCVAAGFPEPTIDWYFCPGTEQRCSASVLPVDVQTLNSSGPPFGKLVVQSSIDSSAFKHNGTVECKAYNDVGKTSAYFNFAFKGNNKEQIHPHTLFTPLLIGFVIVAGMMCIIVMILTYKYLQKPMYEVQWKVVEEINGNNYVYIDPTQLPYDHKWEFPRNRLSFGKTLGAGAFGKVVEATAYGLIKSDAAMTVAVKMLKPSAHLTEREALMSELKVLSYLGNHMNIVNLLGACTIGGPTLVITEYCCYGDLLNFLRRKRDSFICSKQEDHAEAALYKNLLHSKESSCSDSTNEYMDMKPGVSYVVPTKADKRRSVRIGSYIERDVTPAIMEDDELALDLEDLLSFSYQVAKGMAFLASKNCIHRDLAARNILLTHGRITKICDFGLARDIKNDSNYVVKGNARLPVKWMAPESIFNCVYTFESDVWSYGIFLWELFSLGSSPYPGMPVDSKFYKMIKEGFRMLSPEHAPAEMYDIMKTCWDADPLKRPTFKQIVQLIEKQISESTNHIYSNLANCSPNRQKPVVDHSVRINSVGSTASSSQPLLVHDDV

## Cc1ccc(NC(=O)c2ccc(CN3CCNCC3)cc2)cc1Nc1nc(-c2cccnc2)cs1 [AB3280]
c-Kit
  inhibitory profile relative to masitinib: essentially the same inhibitory profile as masitinib, even though slightly less potent than masitinib

## Cc1ccc(NC(=O)c2ccc(CN3CCN(C)CC3)cc2)cc1Nc1nc(-c2cccnc2)cs1 [Masitinib]
[1]
  IC50: 5 nM
Mast degranulation
  inhibition of mast degranulation: significant inhibition of mast degranulation
PDGF-R
  IC50: […]
